Experimental data: PubChem BioAssay (NCI)
Where “and” joins values, the source holds several entries; their conditions need not be identical. Equal values may be shown once.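 Compound exposure: 48 hours, 5 concentrations, 96-well plates. The concentration for 50% growth inhibition is given as GI50. TGI marks complete inhibition of growth.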

Legend:
Experiment in all cases: inhibition of tumour cell growth, NCI panel, 48 h
OVCAR-4 ovarian = system: OVCAR-4 ovarian
RPMI-8226 leukemia = system: RPMI-8226 leukemia
HCC-2998 colon = system: HCC-2998 colon
UO-31 renal = system: UO-31 renal
SF-539 CNS = system: SF-539 CNS
NCI-H460 lung = system: NCI-H460 lung
EKVX NSCLC = system: EKVX NSCLC
SK-OV-3 ovarian = system: SK-OV-3 ovarian

| Compound | GI50 (OVCAR-4 ovarian) | TGI (OVCAR-4 ovarian) [µM] | GI50 (RPMI-8226 leukemia) | TGI (RPMI-8226 leukemia) | GI50 (HCC-2998 colon) | TGI (HCC-2998 colon) | GI50 (UO-31 renal) | TGI (UO-31 renal) | GI50 (SF-539 CNS) | TGI (SF-539 CNS) | GI50 (NCI-H460 lung) | TGI (NCI-H460 lung) | GI50 (EKVX NSCLC) | TGI (EKVX NSCLC) | GI50 (SK-OV-3 ovarian) | TGI (SK-OV-3 ovarian) |
| --- | --- | --- | --- | --- | --- | --- | --- | --- | --- | --- | --- | --- | --- | --- | --- | --- |
| Cc1ccc2c(c1)C(=O)c1c-2n(CCCN=[N+]=[N-])c(=O)c2cc([N+](=O)[O-])ccc12 | 14 µM | 74.2 | 21.3 µM | > 100 µM | > 100 µM | > 100 µM | 69 µM | > 100 µM | > 100 µM | > 100 µM | 21.1 µM | > 100 µM | > 100 µM | > 100 µM |  |  |
| C=CCCC(=O)N1C=CC(=O)[C@H](O)[C@@H]1/C=C/c1ccccc1 | 5.67 µM | > 32.5 | 15.6 µM | > 32.5 µM | 11.6 µM | > 32.5 µM | 4.25 µM | > 32.5 µM | 7.87 µM | > 32.5 µM | 6.65 µM | > 32.5 µM | 7.63 µM | > 32.5 µM | 18.6 µM | > 32.5 µM |
| CN(C)CCNc1nc2ccccc2c2c(=O)c3ccccc3sc12 | 2.85 µM | 11.1 | 2.42 µM | 6.35 µM | 1.74 µM | 3.46 µM | 1.08 µM | 3.37 µM | 1.78 µM | 3.58 µM | 1.62 µM | 3.7 µM | 1.66 µM | 4.98 µM | 4.68 µM | 19 µM |
| O=C(O)C(=O)CBr | 17.5 µM and 17.4 µM | 31.4 | > 48.9 µM and 26.8 µM | > 73.5 µM and 55.6 µM | > 100 µM and 19.3 µM | > 100 µM and 36.3 µM | > 38 µM and 17.3 µM | > 54.7 µM and 31.8 µM | > 41.1 µM and 16.8 µM | > 56.3 µM and 31.5 µM | > 100 µM and 21.2 µM | > 100 µM and 41.9 µM | > 100 µM and 18.9 µM | > 100 µM and 36.7 µM | > 100 µM and 19.7 µM | > 100 µM and 36 µM |
| COc1ccc(NC(=O)/C=C(C)/C=C/C=C(C)\C=C\C2=C(C)CCCC2(C)C)cc1 | 34.8 µM | > 100 | 1.71 µM | 64.4 µM | > 100 µM | > 100 µM | > 100 µM | > 100 µM | 48.8 µM | > 100 µM | 84 µM | > 100 µM | 79 µM | > 100 µM | > 100 µM | > 100 µM |
| O=C(NCCCCOCC#Cc1ccccc1C#CCS(=O)(=O)c1ccccc1)c1cc2ccccc2[nH]1 | 5.56 µM | 22.7 | 2.78 µM | 13.2 µM | 12 µM | 32.4 µM | 4.05 µM | 11.8 µM | 12.1 µM | 26.8 µM | 14.4 µM | > 50 µM | 22.5 µM | > 50 µM | 19.5 µM | > 50 µM |
| CC[C@H](NC(=O)[C@H](CS(=O)(=O)CC1CC1)N[C@@H](c1ccc(F)cc1)C(F)(F)F)C(=O)C(=O)NC1CC1 | 82.9 µM | > 100 | > 100 µM | > 100 µM | > 100 µM | > 100 µM | > 100 µM | > 100 µM | > 100 µM | > 100 µM | > 100 µM | > 100 µM | 90.3 µM | > 100 µM | > 100 µM | > 100 µM |
